In patent US8178539B2, “Substituted 3,4,6,7-tetrahydro-5H-1,2a,4a,8-tetraazacyclopenta[cd]phenalenes and methods” (3M Innovative Properties Company, priority 2006, dated 2012):
Where a name gives a salt, the structure may show the parent alone.

Structure (SMILES) | melting point
COCCc1nc2c(N)nc3c4c2n1CCN4CCC3 [Example 2, 2-(2-Methoxyethyl)-3,4,6,7-tetrahydro-5H-1,2a,4a,8-tetraazacyclopenta[cd]phenalen-9-amine] | 171 to 172 °C
CCOCc1nc2c(N)nc3c4c2n1[C@@H](C)CN4CCC3 [Example 5, (3S)-2-(Ethoxymethyl)-3-methyl-3,4,6,7-tetrahydro-5H-1,2a,4a,8-tetraazacyclopenta[cd]phenalen-9-amine] | 164.1 to 165.6 °C
CCCc1nc2c(N)nc3c4c2n1CCN4CCC3 [Example 3, 2-Propyl-3,4,6,7-tetrahydro-5H-1,2a,4a,8-tetraazacyclopenta[cd]phenalen-9-amine] | 225 to 230 °C
CCOCc1nc2c(N)nc3c4c2n1[C@H](C)CN4CCC3 [Example 4, (3R)-2-(Ethoxymethyl)-3-methyl-3,4,6,7-tetrahydro-5H-1,2a,4a,8-tetraazacyclopenta[cd]phenalen-9-amine] | 164.5 to 166.1 °C
CCOCc1nc2c(N)nc3c4c2n1CC(C)(C)N4CCC3 (as salt: hydrochloride) [Example 6, 2-(Ethoxymethyl)-4,4-dimethyl-3,4,6,7-tetrahydro-5H-1,2a,4a,8-tetraazacyclopenta[cd]phenalen-9-amine hydrochloride] | 222 to 227 °C
CCOCc1nc2c(N)nc3c4c2n1CCN4CCC3 [Example 1, 2-(Ethoxymethyl)-3,4,6,7-tetrahydro-5H-1,2a,4a,8-tetraazacyclopenta[cd]phenalen-9-amine] | 172 to 173 °C
